Source: patent US20080004302A1, “Novel Compounds” (ASTRAZENECA AB, priority 2006, published 2008)
Counter-ions that a name gives are not always drawn.

Columns and labels:
FGFR1 kinase = FGFR1 kinase (Homo sapiens, UniProt P11362); test: Kinase assay (using Caliper technology); format: biochemical; settings: FGFR1 kinase, Caliper; upper bound of bin; read-out: IC50
Procedure: To determine inhibition of FGFR activity, kinase assays were conducted using Caliper technology.
Kinase activity assays were performed in Greiner 384-well low volume plates, with a total reaction volume of 12ul per well. […] The substrate for each assay was a custom peptide with fluorescent tag (13 amino acids in length) the sequence of which was specific for FGFR1 kinase.
Compounds were serially diluted in 5% (v/v) DMSO, before being added to assay plates.
Assay plates were incubated at room temperature for 1.5 h, before the reaction was stopped with the addition of buffer [comprising: 100 mM HEPES—pH7.5, 0.033% Brij-35, 0.22% Caliper Coating Reagent #3, 88mM EDTA, 5% DMSO]. Stopped assay plates were then read using the Caliper LabChip® LC3000 (which uses microfludics to measure a shift in mobility between fluorescent labelled peptide and the FGFR1 kinase—phosphorylated form of this peptide).

FGFR1 IIIc [1] = target: T1, FGFR1 IIIc (Homo sapiens, UniProt P11362); test: Cell based inhibition of transiently expressed FGFR1 IIIc phosphorylation (Cos-1 cells); settings: Cos-1 cells, phospho-FGFR1; upper bound of bin; read-out: IC50
T1 construct: host or cells: Cos-1
T1 sequence (P11362 22-822): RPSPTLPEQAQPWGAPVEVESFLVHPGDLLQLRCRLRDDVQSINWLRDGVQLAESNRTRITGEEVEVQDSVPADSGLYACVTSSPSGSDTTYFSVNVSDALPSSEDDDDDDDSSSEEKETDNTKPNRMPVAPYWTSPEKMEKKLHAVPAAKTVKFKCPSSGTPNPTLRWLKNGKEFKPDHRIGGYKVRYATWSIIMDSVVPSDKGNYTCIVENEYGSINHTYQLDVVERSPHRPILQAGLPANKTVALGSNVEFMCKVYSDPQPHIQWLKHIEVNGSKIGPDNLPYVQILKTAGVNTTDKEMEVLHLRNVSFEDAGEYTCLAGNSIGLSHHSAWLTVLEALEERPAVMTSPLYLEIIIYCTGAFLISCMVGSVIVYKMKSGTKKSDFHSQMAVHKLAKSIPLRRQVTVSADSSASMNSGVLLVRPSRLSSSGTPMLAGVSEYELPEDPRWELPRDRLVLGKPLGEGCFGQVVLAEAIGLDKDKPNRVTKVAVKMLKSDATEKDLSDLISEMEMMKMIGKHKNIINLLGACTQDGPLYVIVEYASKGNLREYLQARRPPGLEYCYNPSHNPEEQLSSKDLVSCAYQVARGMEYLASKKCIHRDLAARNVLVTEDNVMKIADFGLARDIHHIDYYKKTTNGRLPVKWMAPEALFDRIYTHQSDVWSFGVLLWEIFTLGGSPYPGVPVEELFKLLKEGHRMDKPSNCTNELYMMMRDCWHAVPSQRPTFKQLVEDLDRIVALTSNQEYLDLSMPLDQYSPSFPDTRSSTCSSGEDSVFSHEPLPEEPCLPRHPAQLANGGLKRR
Procedure: (§1) This assay is designed to detect inhibitors of transiently expressed FGFR1 phosphorylation by antibody staining of fixed cells detected using ArrayScan technology.
(§2) To undertake the assay, Cos-1 cells were harvested at 90-95% confluence for cell transfection. For each 96-well plate, 24 ul Lipofectamine 2000 was added to 809 ul OptiMEM and incubated at room temperature for 5 minutes. […] Equal volumes of DNA and Lipofectamine 2000 were combined (DNA: Lipid=1:1.2 ratio) and incubated at room temperature for 20 minutes.
The harvested Cos-1 cells are counted using a coulter counter and diluted further with 1% FCS/DMEM to 2.5×10^5 cells/ml. For each 96-well, 8.33 ml cells were required. […] Media was removed from the wells using vacuum aspiration; cells were fixed by adding 50μl of 100% methanol to each well and incubated at room temperature for 20 minutes.
(§3) The plates were read on an Arrayscan (Cellomics).

Erk phosphorylation = test: Growth factor (bFGF) stimulated Erk phosphorylation in NIH 3T3 cells; settings: Mus musculus, NIH3T3, NIH 3T3 cells, 3 ng/ml bFGF
human IGF1R = target: T2, human IGF1R (Homo sapiens, UniProt P08069); test: Inhibition of insulin-like growth factor-1 receptor phosphorylation in R+ cells; format: cell-based; settings: 30 nM IGF1, read-out: IGF cell class
T2 construct: expressed in transfected cells; host or cells: R+ cells (R- mouse fibroblasts transfected with human IGF1R)
T2 sequence (P08069 31-1367): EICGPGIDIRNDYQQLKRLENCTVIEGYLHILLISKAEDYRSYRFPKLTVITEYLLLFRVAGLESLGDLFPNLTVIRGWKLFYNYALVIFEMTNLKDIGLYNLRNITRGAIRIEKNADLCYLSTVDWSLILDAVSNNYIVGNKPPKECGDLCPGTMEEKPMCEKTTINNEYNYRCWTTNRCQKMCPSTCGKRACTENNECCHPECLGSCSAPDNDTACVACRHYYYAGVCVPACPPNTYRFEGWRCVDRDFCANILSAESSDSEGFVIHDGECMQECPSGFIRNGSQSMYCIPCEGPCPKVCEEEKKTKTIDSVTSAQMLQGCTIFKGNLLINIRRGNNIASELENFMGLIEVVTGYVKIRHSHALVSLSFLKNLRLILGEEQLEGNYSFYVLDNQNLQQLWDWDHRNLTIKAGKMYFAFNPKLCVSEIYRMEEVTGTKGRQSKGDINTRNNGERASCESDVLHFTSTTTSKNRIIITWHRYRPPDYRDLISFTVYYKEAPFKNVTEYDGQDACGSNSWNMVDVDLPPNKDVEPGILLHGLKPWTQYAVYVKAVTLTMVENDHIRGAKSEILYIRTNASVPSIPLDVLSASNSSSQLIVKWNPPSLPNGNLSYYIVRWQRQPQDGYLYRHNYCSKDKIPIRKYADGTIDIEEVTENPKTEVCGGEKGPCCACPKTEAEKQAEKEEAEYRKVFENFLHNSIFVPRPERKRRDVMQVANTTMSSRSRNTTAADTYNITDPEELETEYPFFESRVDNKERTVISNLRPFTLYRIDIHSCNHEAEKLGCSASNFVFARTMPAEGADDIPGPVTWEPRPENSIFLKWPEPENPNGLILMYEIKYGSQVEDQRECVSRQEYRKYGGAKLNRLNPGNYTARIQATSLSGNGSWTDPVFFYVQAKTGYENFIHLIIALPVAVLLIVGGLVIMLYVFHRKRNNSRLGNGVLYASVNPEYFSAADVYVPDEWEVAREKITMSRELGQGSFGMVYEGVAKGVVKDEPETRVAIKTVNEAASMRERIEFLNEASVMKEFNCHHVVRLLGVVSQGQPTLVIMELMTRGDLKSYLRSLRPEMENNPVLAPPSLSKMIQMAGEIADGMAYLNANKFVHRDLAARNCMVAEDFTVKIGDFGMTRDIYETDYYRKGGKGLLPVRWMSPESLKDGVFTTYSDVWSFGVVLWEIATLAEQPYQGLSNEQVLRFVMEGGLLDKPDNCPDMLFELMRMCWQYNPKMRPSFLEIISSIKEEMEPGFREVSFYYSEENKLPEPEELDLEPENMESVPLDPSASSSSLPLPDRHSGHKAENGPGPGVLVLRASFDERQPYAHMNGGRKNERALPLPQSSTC
Procedure: This immunofluorescence end point cell assay measures the ability of a test compound to reduce the measured levels of IGF1R phosphorylation after IGF1 stimulation in R^+ cells. […] were derived by transfection of R^− mouse fibroblast cells with human IGF1R.
(+5% CO2) incubator for 30 minutes.
Following the compound treatment, the R^+ cells were stimulated with a final concentration of 30 nM IGF1 (Gropep 1M001) for 20 minutes at 37° C. […] Plates were incubated for 1 hour at room temperature. […] Additionally, in-house antibodies raised against phospho […] were also used at a suitable titre determined for each batch.
The plates were incubated at room temperature for one hour. […] After addition of 100 μl/well PBS the plates were sealed with a black seal.
The Green Fluorescent phospho IGF1R -associated signal in each well was measured using an Acumen Explorer HTS Reader (TTP Labtech Ltd., Cambridge). […] The instrument is a laser-scanning fluorescence microplate cytometer, which samples the well at regular intervals and uses threshold algorithms to identify all fluorescent intensities above the solution background without the need to generate and analyse an image. These fluorescent objects can be quantified and provide a measure of the phospho IGF1R levels in cells. Fluorescence dose response data obtained with each compound was exported into a suitable software package (such as Origin) to perform curve fitting analysis. Phospho-IGF1R levels in response to compound treatment versus stimulated and unstimulated controls were expressed as an IC50 value.

FGFR1 IIIc [2] = target: T1, FGFR1 IIIc; test: Cell based inhibition of transiently expressed FGFR1 IIIc phosphorylation via use of ECHO technology (Cos-1 cells); settings: Cos-1 cells, phospho-FGFR1, ECHO dosing; upper bound of bin; read-out: IC50
Procedure: as §1
as §2, with “24μl” for “24 ul”
The harvested Cos-1 cells are counted using a coulter counter and diluted further with 1% FCS/DMEM to 2.5×10^5 cells/ml. For each 96-well, 8.33 ml cells were required. […] 70 μl of media was aspirated from the assay plate using the Quadra before the plate was transferred onto the ECHO 550. […] Compound transfer to the assay plate on the ECHO 550 was at concentration ranges 1)10 μM, 2) 3 μM, 3) 1 μM, 4) 0.3 μM, 5) 0.1 μM, 6) […].
The plates were gently tapped to mix compound in with the cell media and left to incubate at 37° C. with 5% CO2 for 1 hour.
Media was removed from the wells using vacuum aspiration; cells were fixed by adding 50 μl of 100% methanol to each well and incubated at room temperature for 20 minutes.
as §3

Chain of FGFR1 kinase (P11362 22-822): as the sequence (P11362 22-822) above

IC50 (FGFR1 kinase) [µM] | IC50 (FGFR1 IIIc [1]) [µM] | IC50 (human IGF1R) [µM] | IC50 (FGFR1 IIIc [2]) [µM] | SMILES | IC50 (Erk phosphorylation; upper bound of bin) [µM] | IC50 (Erk phosphorylation) [µM]
< 10 | < 30 | > 10 | – | Cc1cc(CNc2nccc(Nc3cc(CCc4ccncc4)[nH]n3)n2)on1 [Example 116, N-[(3-methyl-1,2-oxazol-5-yl)methyl]-N′-[5-(2-pyridin-4-ylethyl)-2H-pyrazol-3-yl]pyrimidine-2,4-diamine] | – | –
< 10 | < 30 | – | – | Cc1cc(CNc2nccc(Nc3cc(CCc4cn(C)cn4)[nH]n3)n2)on1 [Example 119, N′-[5-[2-(1-methylimidazol-4-yl)ethyl]-1H-pyrazol-3-yl]-N-[(3-methyl-1,2-oxazol-5-yl)methyl]pyrimidine-2,4-diamine] | – | –
< 10 | – | > 10 | – | Cc1cc(CNc2nccc(Nc3cc(OCc4cccc(C#N)c4)[nH]n3)n2)on1 [Example 92, 3-[[5-[[2-[(3-methyl1,2-oxazol-5-yl)methylamino]pyrimidin-4-yl]amino]-2H-pyrazol-3-yl]oxymethyl]benzonitrile hydrochloride] | < 1 | –
< 10 | – | > 10 | – | Cc1cc(CNc2nccc(Nc3cc(C4CCOCC4)[nH]n3)n2)on1 [Example 114, N-[(3-methyl1,2-oxazol-5-yl)methyl]-N′-[5-(oxan-4-yl)-1H-pyrazol-3-yl]pyrimidine-2,4-diamine hydrochloride] | < 10 | –
< 1 | < 30 | – | – | Cc1cc(CNc2nccc(Nc3cc(CCc4ccc(CN(C)C)o4)[nH]n3)n2)on1 [Example 121, N′-[5-[2-[5-(dimethylaminomethyl)-2-furyl]ethyl]-1H-pyrazol-3-yl]-N-[(3-methyl-1,2-oxazol-5-yl)methyl]pyrimidine-2,4-diamine] | – | –
< 1 | – | > 10 | – | Cc1cc(CNc2nccc(Nc3cc(CCc4cccnc4)[nH]n3)n2)on1 [Example 115, N-[(3-methyl1,2-oxazol-5-yl)methyl]-N′-[5-(2-pyridin-3-ylethyl)-2H-pyrazol-3-yl]pyrimidine-2,4-diamine] | < 10 | –
< 0.2 | – | > 10 | – | Cc1cc(CNc2nccc(Nc3cc(CCc4ccco4)[nH]n3)n2)on1 [Example 107, N′-[5-[2-(2-furyl)ethyl]-2H-pyrazol-3-yl]-N-[(3-methyl1,2-oxazol-5-yl)methyl]pyrimidine-2,4-diamine] | < 1 | –

The remaining lines, values behind:

SMILES | IC50 (FGFR1 kinase) [µM] | IC50 (FGFR1 IIIc [1]) [µM] | IC50 (human IGF1R) [µM] | IC50 (FGFR1 IIIc [2]) [µM] | IC50 (Erk phosphorylation; upper bound of bin) [µM] | IC50 (Erk phosphorylation) [µM]
COc1ccc(OC)c(CCc2cc(Nc3ccnc(NCc4cc(C)no4)n3)n[nH]2)c1 [Example 45, N′-[5-[2-(2,5-dimethoxyphenyl)ethyl]-2H-pyrazol-3-yl]-N-[(3-methyl1,2-oxazol-5-yl)methyl]pyrimidine-2,4-diamine] | < 1 | < 10 | – | – | – | –
c1ccc(OCc2cc(Nc3ccnc(NCc4cc(C5CC5)no4)n3)[nH]n2)cc1 [Example 35, N-[(3-cyclopropyl1,2-oxazol-5-yl)methyl]-N′-[5-(phenoxymethyl)-2H-pyrazol-3-yl]pyrimidine-2,4-diamine] | < 10 | – | > 10 | – | < 1 | –
CC(C)Oc1cc(Nc2ccnc(NCc3cc(C4CCCO4)no3)n2)[nH]n1 (stereo not drawn) [Example 84, N-[[3-(oxolan-2-yl)1,2-oxazol-5-yl]methyl]-N′-(5-propan-2-yloxy-2H-pyrazol-3-yl)pyrimidine-2,4-diamine] | < 0.2 | – | – | < 1 | – | < 0.2
Cc1cc(CNc2nccc(Nc3cc(CCc4cccc(N5CCOCC5)c4)[nH]n3)n2)on1 [Example 55, N-[(3-methyl1,2-oxazol-5-yl)methyl]-N′-[5-[2-(3-morpholin-4-ylphenyl)ethyl]-1H-pyrazol-3-yl]pyrimidine-2,4-diamine] | < 10 | – | > 10 | – | < 10 | –
CNC(=O)c1cc(CNc2nccc(Nc3cc(OC(C)C)n[nH]3)n2)on1 [Example 79, N-methyl-5-[[[4-[(5-propan-2-yloxy-2H-pyrazol-3-yl)amino]pyrimidin-2-yl]amino]methyl]1,2-oxazole-3-carboxamide] | < 0.2 | – | – | < 10 | < 10 | –
Cc1cc(CNc2nccc(Nc3cc(OCc4cccc(C(=O)N5CCOCC5)c4)[nH]n3)n2)on1 [Example 90, [3-[[5-[[2-[(3-methyl1,2-oxazol-5-yl)methylamino]pyrimidin-4-yl]amino]-1H-pyrazol-3-yl]oxymethyl]phenyl]-morpholin-4-yl-methanone] | < 10 | – | > 10 | – | < 10 | –
CC(C)Oc1cc(Nc2ccnc(NCc3cc(-c4ncccn4)no3)n2)n[nH]1 [Example 82, N′-(5-propan-2-yloxy-2H-pyrazol-3-yl)-N-[(^3-pyrimidin-2-yl-1,2-oxazol-5-yl)methyl]pyrimidine-2,4-diamine] | < 0.2 | – | – | < 1 | < 1 | –
Cc1cc(CNc2nccc(Nc3cc(OCc4cccc(N5CCOCC5)c4)[nH]n3)n2)on1 [Example 87, N-[(3-methyl1,2-oxazol-5-yl)methyl]-N′-[5-[(3-morpholin-4-ylphenyl)methoxy]-2H-pyrazol-3-yl]pyrimidine-2,4-diamine] | < 10 | – | > 10 | – | < 10 | –
Cc1cc(CNc2nccc(Nc3cc(C4CCCC4)[nH]n3)n2)on1 [Example 13, N′-(5-cyclopentyl-2H-pyrazol-3-yl)-N-[(3-methyl-1,2-oxazol-5-yl)methyl]pyrimidine-2,4-diamine] | – | < 0.2 | – | < 1 | – | –
COc1cccc(CCc2cc(Nc3ccnc(NCc4cc(CO)no4)n3)[nH]n2)c1 [Example 61, [5-[[[4-[[5-[2-(3-methoxyphenyl)ethyl]-2H-pyrazol-3-yl]amino]pyrimidin-2-yl]amino]methyl]-1,2-oxazol-3-yl]methanol] | < 0.2 | < 1 | > 10 | – | – | –
COc1cc(OC)cc(OCc2cc(Nc3ccnc(NCc4cc(C)no4)n3)n[nH]2)c1 [Example 44, N′-[5-[(3,5-Dimethoxyphenoxy)methyl]-2H-pyrazol-3-yl]-N-[(3-methyl1,2-oxazol-5-yl)methyl]pyrimidine-2,4-diamine] | < 0.2 | – | > 10 | < 1 | – | < 0.2
COc1ncc(CCc2cc(Nc3ccnc(NCc4cc(C)no4)n3)n[nH]2)c(OC)n1 [Example 60, N′-[5-[2-(2,4-dimethoxypyrimidin-5-yl)ethyl]-1H-pyrazol-3-yl]-N-[(3-methyl-1,2-oxazol-5-yl)methyl]pyrimidine-2,4-diamine] | < 1 | < 30 | > 10 | – | – | –
